The values that follow come from patent publication US20240325544A1, “CATIONIC LIPID FOR COVALENT MODIFICATION OF PEPTIDES” (PharmalN Corporation, priority 2023, published 2024).

The subject of data set [1] is cGMP. As to the kind of experiment: Plasma cGMP after SC bolus of natriuretic peptides in CD-1 mice (pharmacodynamics, Table 3). Format: in vivo. As to conditions: SC bolus 1.0 mg/kg (≤0.45 μmol/kg), baseline 10 +/−8 pmol/ml, n = 3-5. As for the experimental part: (§1) The test articles were formulated or dissolved in sterile water for injection on the same day of administration. […] Blood samples were collected via retro-orbital bleed at 2- and 6-hours post-injection, with two bleedings per animal at two different timepoints. The samples were collected in K2EDTA tubes, processed by centrifugation (2000×g; 15 m 4 eC within 30 minutes after collection), and the resulting plasma samples were stored at −80° C. Biochemical analysis: The plasma concentration of the respective natriuretic peptide was analyzed using commercially available ELISA kits from Phoenix Pharmaceuticals (Burlingame, CA): ANP ELISA (cat #EKE-005-06), BNP ELISA (cat #EKE-011-03), and CNP ELISA (cat #EKE-012-03). […] Plasma cGMP was analyzed using a commercially available kit from Abcam (ab133052, Waltham, MA).

Data set [2] in a line: Plasma concentration of respective natriuretic peptide by ELISA after SC bolus in CD-1 mice (pharmacokinetics, Table 3). The following applies: male, CD-1, mouse, in vivo, sc, 1 mg/kg. As for the experimental part: as §1
Data set [3] has as its system Sprague Dawley rats. As to the kind of experiment: Dose-range finding of cationic alkyl modified CNP, subcutaneous bolus in rats (Table 2).
Data set [4] concerns Sprague Dawley rats. The data set is described as follows: Clinically observable adverse effects of cationic alkyl moieties after subcutaneous bolus in rats (Table 1). Type of data set: in vivo, rat. The following applies: tested at 3.0, 5.0 or 10 μmol/kg. As to the method:
Drug administration and observation: Each rat received a subcutaneous injection of a cationic alkyl modifier (SEQ ID NO: 1-22; listed in Table 1 below) in a buffer of sterile water adjusted to a pH between 4.5-5, with an initial bolus dose of 5.0 μmol/kg and an injection volume of 1.0 mL/kg. The bolus dose level was adjusted based on observations, and animals were monitored closely for lethargy, ataxia, swelling, or discoloration during the first 4 hours post-injection and hourly thereafter. As used herein, “ataxia” means a clinical sign observed as poor muscle control that causes clumsy voluntary movements. It may cause difficulty with mobility, coordination, and eye movements. As used herein, “lethargy” means a clinical sign observed as inability or unwillingness to resume normal activity characterized by exploring and alertness. Lethargic rats are easily observed by displaying little to no activity and/or unwillingness to explore around, half closed eyes, and hunched posture. As used herein, “swelling” means a clinical sign observed as the enlargement or engorgement of body parts with blood or fluid and is associated with visible redness (discoloration). If no swelling occurred, dose level was increased to 10 μmol/kg; if swelling was present, bolus dose level was decreased to 3.0 μmol/kg. A wash-out period of 1 week was allowed between bolus doses, and animals were humanely euthanized through CO2 asphyxiation after final observation.

Each structure is given as a SMILES string. Marks after values point to notes of the source that are not given here. Bridge positions count the residues as written; N and C are the ends. Square brackets hold non-standard residues; d marks the D form. Peptide text beside a SMILES is read from it. * marks the point of attachment. Palmitoyl = CCCCCCCCCCCCCCCC(=O)*; Dab = NCC[C@H](N)C(=O)O; Dap = NC[C@H](N)C(=O)O; Hexanoyl = CCCCCC(=O)*; AEEA = NCCOCCOCC(=O)O Bounds are passed on as bounds.

For the molecule `CCCCCCCCCCCCCCCC(=O)NCCOCCOCC(=O)NCCOCCOCC(=O)N[C@@H](CN)C(=O)N[C@@H](CCN)C(=O)NCC(=O)N[C@@H](CC(C)C)C(=O)N[C@@H](CO)C(=O)N[C@@H](CCCCN)C(=O)NCC(=O)N[C@H]1CSSC[C@@H](C(=O)O)NC(=O)CNC(=O)[C@H](CC(C)C)NC(=O)CNC(=O)[C@H](CO)NC(=O)[C@H](CCC(N)=O)NC(=O)[C@H](CO)NC(=O)CNC(=O)[C@H]([C@@H](C)CC)NC(=O)[C@H](CCCNC(=N)N)NC(=O)[C@H](CC(=O)O)NC(=O)[C@H](CC(C)C)NC(=O)[C@H](CCCCN)NC(=O)[C@H](CC(C)C)NC(=O)CNC(=O)[C@H](Cc2ccccc2)NC1=O` [SEQ ID NO: 35] ({Palmitoyl-AEEA-AEEA}-[Dap][Dab]GLSKGCFGLKLDRIGSQSGLGC-OH; disulfide 8-24; C-terminus assumed), in data set [1], the “Plasma concentration of cGMP, 2 hr” value is recorded as 65.28**** pmol/mL and the “Plasma concentration of cGMP, 6 hr” value is listed as 35.10** pmol/mL. Besides, in data set [2], the level at 2 h was 12.9 ng/mL and the level at 6 h was 4.13 ng/mL.

In the case of `CCCCCCCCCCCCCCCC(=O)NCCOCCOCC(=O)NCCOCCOCC(=O)NCCOCCOCC(=O)N[C@@H](CN)C(=O)NCC(=O)N[C@@H](CC(C)C)C(=O)N[C@@H](CO)C(=O)N[C@@H](CCCCN)C(=O)NCC(=O)N[C@H]1CSSC[C@@H](C(=O)O)NC(=O)CNC(=O)[C@H](CC(C)C)NC(=O)CNC(=O)[C@H](CO)NC(=O)[C@H](CCC(N)=O)NC(=O)[C@H](CO)NC(=O)CNC(=O)[C@H]([C@@H](C)CC)NC(=O)[C@H](CCCNC(=N)N)NC(=O)[C@H](CC(=O)O)NC(=O)[C@H](CC(C)C)NC(=O)[C@H](CCCCN)NC(=O)[C@H](CC(C)C)NC(=O)CNC(=O)[C@H](Cc2ccccc2)NC1=O` [SEQ ID NO: 42] ({Palmitoyl-AEEA-AEEA-AEEA}-[Dap]GLSKGCFGLKLDRIGSQSGLGC-OH; disulfide 7-23; C-terminus assumed), in data set [1], the “Plasma concentration of cGMP, 2 hr” value is listed as 110.21*** pmol/mL and the “Plasma concentration of cGMP, 6 hr” value is 46.90** pmol/mL. In data set [2], the level at 2 h turned out to be 26.1 ng/mL and the level at 6 h came to 25 ng/mL.

Regarding `CCCCCCCCCCCCCCCC(=O)NCCOCCOCC(=O)NCCOCCOCC(=O)NCCOCCOCC(=O)N[C@@H](CCN)C(=O)NCC(=O)N[C@@H](CC(C)C)C(=O)N[C@@H](CO)C(=O)N[C@@H](CCCCN)C(=O)NCC(=O)N[C@H]1CSSC[C@@H](C(=O)O)NC(=O)CNC(=O)[C@H](CC(C)C)NC(=O)CNC(=O)[C@H](CO)NC(=O)[C@H](CCC(N)=O)NC(=O)[C@H](CO)NC(=O)CNC(=O)[C@H]([C@@H](C)CC)NC(=O)[C@H](CCCNC(=N)N)NC(=O)[C@H](CC(=O)O)NC(=O)[C@H](CC(C)C)NC(=O)[C@H](CCCCN)NC(=O)[C@H](CC(C)C)NC(=O)CNC(=O)[C@H](Cc2ccccc2)NC1=O` [SEQ ID NO: 41] ({Palmitoyl-AEEA-AEEA-AEEA}-[Dab]GLSKGCFGLKLDRIGSQSGLGC-OH; disulfide 7-23; C-terminus assumed), in data set [1], the “Plasma concentration of cGMP, 2 hr” value is listed as 124.77*** pmol/mL and the “Plasma concentration of cGMP, 6 hr” value is reported as 67.78**** pmol/mL. Moreover, in data set [2], the level at 2 h was 26.7 ng/mL and the level at 6 h amounted to 30.1 ng/mL.

With `CC[C@H](C)[C@@H]1NC(=O)[C@H](CCCNC(=N)N)NC(=O)[C@H](CC(=O)O)NC(=O)[C@H](CCSC)NC(=O)[C@H](CCCNC(=N)N)NC(=O)CNC(=O)CNC(=O)[C@H](Cc2ccccc2)NC(=O)[C@@H](NC(=O)[C@H](CO)NC(=O)[C@H](CO)NC(=O)[C@H](CCCNC(=N)N)NC(=O)[C@H](CCCNC(=N)N)NC(=O)[C@H](CC(C)C)NC(=O)[C@@H](N)CO)CSSC[C@@H](C(=O)N[C@@H](CC(N)=O)C(=O)N[C@@H](CO)C(=O)N[C@@H](Cc2ccccc2)C(=O)N[C@@H](CCCNC(=N)N)C(=O)N[C@@H](Cc2ccc(O)cc2)C(=O)O)NC(=O)CNC(=O)[C@H](CC(C)C)NC(=O)CNC(=O)[C@H](CO)NC(=O)[C@H](CCC(N)=O)NC(=O)[C@H](C)NC(=O)CNC1=O` [SEQ ID NO: 44, reference compound], in data set [1], the “Plasma concentration of cGMP, 2 hr” value came to 26.23 pmol/mL and the “Plasma concentration of cGMP, 6 hr” value was determined as 14.08 pmol/mL.

In the case of `CCCCCCCCCCCCCCCC(=O)N[C@@H](CCCCN)C(=O)N[C@@H](CCCCN)C(=O)NCC(=O)NCC(=O)NCC(=O)N[C@@H](CCCCN)C(=O)N[C@@H](CCCCN)C(=O)NCC(=O)N[C@@H](CC(C)C)C(=O)N[C@@H](CO)C(=O)N[C@@H](CCCCN)C(=O)NCC(=O)N[C@H]1CSSC[C@@H](C(=O)O)NC(=O)CNC(=O)[C@H](CC(C)C)NC(=O)CNC(=O)[C@H](CO)NC(=O)[C@H](CCC(N)=O)NC(=O)[C@H](CO)NC(=O)CNC(=O)[C@H]([C@@H](C)CC)NC(=O)[C@H](CCCNC(=N)N)NC(=O)[C@H](CC(=O)O)NC(=O)[C@H](CC(C)C)NC(=O)[C@H](CCCCN)NC(=O)[C@H](CC(C)C)NC(=O)CNC(=O)[C@H](Cc2ccccc2)NC1=O` [SEQ ID NO: 24] (Palmitoyl-KKGGGKKGLSKGCFGLKLDRIGSQSGLGC-OH; disulfide 13-29; C-terminus assumed), in data set [3] (up to 10 mg/kg), the “Ataxia** in n = 3” value is listed as no less than 5 mg/kg, the “Lethargy* in n = 3” value is on record as no less than 5 mg/kg and the “Swelling and/or Discoloration in n = 3” value was no less than 5 mg/kg. In data set [3] (value in parentheses), the “Ataxia** in n = 3” value was “(1.6) μmol/kg”, the “Lethargy* in n = 3” value is reported as “(1.6) μmol/kg” and the “Swelling and/or Discoloration in n = 3” value was “(1.6) μmol/kg”.

Take `CCCCCCCCCCCCCCCC(=O)N[C@H](CCCCN)C(=O)N[C@H](CCCCN)C(=O)N[C@H](CCCCN)C(=O)N[C@H](CCCCN)C(=O)NCC(=O)NCC(=O)NCC(=O)NCC(=O)N[C@@H](CC(C)C)C(=O)N[C@@H](CO)C(=O)N[C@@H](CCCCN)C(=O)NCC(=O)N[C@H]1CSSC[C@@H](C(=O)O)NC(=O)CNC(=O)[C@H](CC(C)C)NC(=O)CNC(=O)[C@H](CO)NC(=O)[C@H](CCC(N)=O)NC(=O)[C@H](CO)NC(=O)CNC(=O)[C@H]([C@@H](C)CC)NC(=O)[C@H](CCCNC(=N)N)NC(=O)[C@H](CC(=O)O)NC(=O)[C@H](CC(C)C)NC(=O)[C@H](CCCCN)NC(=O)[C@H](CC(C)C)NC(=O)CNC(=O)[C@H](Cc2ccccc2)NC1=O` [SEQ ID NO: 26] (Palmitoyl-[dK][dK][dK][dK]GGGGLSKGCFGLKLDRIGSQSGLGC-OH; disulfide 13-29; C-terminus assumed): in data set [3] (up to 10 mg/kg), the “Ataxia** in n = 3” value is given as no less than 5 mg/kg, the “Lethargy* in n = 3” value is no less than 5 mg/kg and the “Swelling and/or Discoloration in n = 3” value is no less than 5 mg/kg. Further, in data set [3] (value in parentheses), the “Ataxia** in n = 3” value is given as “(1.6) μmol/kg”, the “Lethargy* in n = 3” value is listed as “(1.6) μmol/kg” and the “Swelling and/or Discoloration in n = 3” value is listed as “(1.6) μmol/kg”.

As for `CCCCCC(=O)N[C@@H](CCCCN)C(=O)N[C@@H](CCCCN)C(=O)NCC(=O)NCC(=O)NCC(=O)N[C@@H](CCN)C(=O)N[C@@H](CCN)C(=O)NCC(=O)N[C@@H](CC(C)C)C(=O)N[C@@H](CO)C(=O)N[C@@H](CCCCN)C(=O)NCC(=O)N[C@H]1CSSC[C@@H](C(=O)O)NC(=O)CNC(=O)[C@H](CC(C)C)NC(=O)CNC(=O)[C@H](CO)NC(=O)[C@H](CCC(N)=O)NC(=O)[C@H](CO)NC(=O)CNC(=O)[C@H]([C@@H](C)CC)NC(=O)[C@H](CCCNC(=N)N)NC(=O)[C@H](CC(=O)O)NC(=O)[C@H](CC(C)C)NC(=O)[C@H](CCCCN)NC(=O)[C@H](CC(C)C)NC(=O)CNC(=O)[C@H](Cc2ccccc2)NC1=O` [SEQ ID NO: 28] (Hexanoyl-KKGGG[Dab][Dab]GLSKGCFGLKLDRIGSQSGLGC-OH; disulfide 13-29; C-terminus assumed), in data set [3] (up to 10 mg/kg), the “Ataxia** in n = 3” value is listed as no less than 5 mg/kg, the “Lethargy* in n = 3” value is no less than 5 mg/kg and the “Swelling and/or Discoloration in n = 3” value is given as no less than 5 mg/kg. In data set [3] (value in parentheses), the “Ataxia** in n = 3” value was “(1.6) μmol/kg”, the “Lethargy* in n = 3” value is reported as “(1.6) μmol/kg” and the “Swelling and/or Discoloration in n = 3” value is on record as “(1.6) μmol/kg”.

`CCCCCCCCCCCCCCCC(=O)NCCOCCOCC(=O)NCCOCCOCC(=O)NCCOCCOCC(=O)N[C@@H](CCCCN)C(=O)N[C@@H](CCCCN)C(=O)O` [SEQ ID NO: 7, CH3(CH2)14(C═O)-Aeea-Aeea-Aeea-KK]: the “Ataxia** in n = 3” value in data set [4] (ataxia is bolus dose limiting toxicity) is greater than 5 µmol/kg. In addition, the “Swelling and/or Discoloration in n = 3” value in data set [4] (dose at which sign was seen) was no less than 3 µmol/kg. Besides, in data set [4] (lethargy is considered maximum tolerated bolus dose), the “Lethargy* in n = 3” value was no less than 5 µmol/kg.
